# Measured values from patent publication US20180256673A1, “METHODS FOR TREATING FUNGAL INFECTIONS” (priority 2015, published 2018).
# Values joined by “and” are separate entries in the source; they are usually repeats but may differ in a detail not shown here. Equal values may be shown once. Read-outs that look alike come from different tables or passages of the source.
# What was measured:
# C. albicans NRRL Y-477 [1] = assay: Broth microdilution MIC (CLSI), Examples 3 and 4; conditions: Candida albicans
# Protocol: Antifungal susceptibility testing. […] MIC assays were performed in triplicate.
# C. krusei ATCC 6258 [2] = assay type: cell-based, Candida krusei
# Protocol: (§1) Spontaneous mutant selection. […] Three individual colonies from each strain were used to start cultures in RPMI. […] One milliliter aliquots were spread onto SDA plates containing drug with sterile glass beads. Starting viable count was enumerated by triplicate plating of serial dilutions of the starting inoculum. […] Glycerol stocks of putative mutant colonies were stored at −80° C. […] Spontaneous mutation frequencies were calculated by dividing the number of resistant colonies on a given plate by the starting inoculum plated. A subset of mutants (weighted heavily towards those selected with CMP1) were then evaluated by MIC and sequencing of FKS gene hot spot regions.
# C. albicans NRRL Y-477 [3] = assay: microbe, parasite or virus in culture; assay type: cell-based, Candida albicans; conditions: for MIC: Candida albicans
# Candida dubliniensis = assay: Broth microdilution of invasive fungal isolates (CLSI M27-A3/M38-A2); assay type: cell-based; conditions: 11 isolates
# [4] = tested on: C. parapsilosis vaginal isolates; assay: Susceptibility testing of VVC clinical isolates at pH 7 and 4 (CLSI M27-A3); assay type: cell-based, Candida parapsilosis; conditions: 14 isolates, read-out: MIC90
# [5] = tested on: C. tropicalis vaginal isolates; assay: as above; assay type: cell-based; conditions: Candida tropicalis, 13 isolates, read-out: MIC90
# [6] = tested on: C. glabrata ATCC 90030, ATCC 2001; assay: microbe, parasite or virus in culture; assay type: cell-based, Candida glabrata; conditions: for MIC fold-shift: WT to P20; for MIC: Nakaseomyces glabratus
# C. albicans NRRL Y-477 [7] = assay type: cell-based, Candida albicans
# Protocol: as §1
# C. parapsilosis CP02 [8] = assay: microbe, parasite or virus in culture; assay type: cell-based, Candida parapsilosis; conditions: for MIC: Lodderomyces parapsilosis
# [9] = tested on: C. glabrata vaginal isolates; assay: Susceptibility testing of VVC clinical isolates at pH 7 and 4 (CLSI M27-A3); assay type: cell-based, Candida glabrata; conditions: Nakaseomyces glabratus, 21 isolates, read-out: MIC90
# C. krusei ATCC 6258 [10] = assay: microbe, parasite or virus in culture; assay type: cell-based, Candida krusei; conditions: for MIC: Pichia kudriavzevii
# Candida krusei = assay: Broth microdilution of invasive fungal isolates (CLSI M27-A3/M38-A2); assay type: cell-based; conditions: 16 isolates
# [11] = tested on: C. albicans vaginal isolates; assay: Susceptibility testing of VVC clinical isolates at pH 7 and 4 (CLSI M27-A3); assay type: cell-based, Candida albicans; conditions: Candida albicans; for MIC: read-out: MIC; for MIC90: 60 isolates, read-out: MIC90
# Candida parapsilosis = assay: Broth microdilution of invasive fungal isolates (CLSI M27-A3/M38-A2); assay type: cell-based; conditions: 92 isolates
# C. parapsilosis CP02 [12] = assay type: cell-based, Candida parapsilosis
# Protocol: as §1
# [13] = SDA, minimum concentration to cleanly inhibit growth
compound,measurement,setting,value
"CC[C@H](C)C[C@H](C)CCCCCCCCC(=O)N[C@H]1C[C@@H](O)[C@@H](NCCN)NC(=O)[C@@H]2[C@@H](O)CCN2C(=O)[C@H]([C@H](O)CCN)NC(=O)[C@H]([C@H](O)[C@@H](O)c2ccc(O)cc2)NC(=O)[C@@H]2C[C@@H](O)CN2C(=O)[C@H]([C@@H](C)O)NC1=O [CAS, caspofungin]",MIC,C. albicans NRRL Y-477 [1]; NRRLY477,0.5 µg/mL
same,MIC,"C. albicans NRRL Y-477 [1]; NRRLY477, 24 h, read-out: Broth MIC",0.25 µg/mL
same,Median mutation frequency,C. krusei ATCC 6258 [2],<3.86E−09
same,Plate concentration,C. krusei ATCC 6258 [2]; [13],0.5 µg/mL
same,Freq. (replicate mutation frequency),C. krusei ATCC 6258 [2]; replicate plates 1-3,<3.86E−09 (2×) and 3.51E−09
same,MIC,"C. albicans NRRL Y-477 [3]; NRRLY477, 48 h, NRRL Y-477 P20-1, selecting drug ANID, Fks1 HS1 S645Y, 48 h read",2 µg/mL
same,MIC,"C. albicans NRRL Y-477 [3]; NRRLY477, 48 h, NRRL Y-477 P20-1, selecting drug CMP1, 48 h read",0.5 µg/mL
same,MIC,"C. albicans NRRL Y-477 [3]; NRRLY477, NRRL Y-477 P20-1, selecting drug CAS",0.25 µg/mL
same,MIC,"C. albicans NRRL Y-477 [3]; NRRLY477, read-out: MIC P20, NRRL Y-477, total population after 20 passages with the selecting drug, MIC of selecting drug",0.25 µg/mL
same,MIC fold-shift,"C. albicans NRRL Y-477 [3]; NRRL Y-477, WT to P20",1
same,Cumulative % of isolates inhibited at MIC 0.015 μg/mL,Candida dubliniensis,(9.1) %
same,Cumulative % of isolates inhibited at MIC 0.03 μg/mL,Candida dubliniensis,(54.5) %
same,Cumulative % of isolates inhibited at MIC 0.06 μg/mL,Candida dubliniensis,(100.0) %
same,Number of isolates inhibited at MIC 0.015 μg/mL,Candida dubliniensis,1
same,Number of isolates inhibited at MIC 0.03 μg/mL,Candida dubliniensis,5
same,Number of isolates inhibited at MIC 0.06 μg/mL,Candida dubliniensis,5
same,MIC50,"Candida dubliniensis; Candida dubliniensis, read-out: MIC50",0.03 µg/mL
same,MIC90,"Candida dubliniensis; Candida dubliniensis, read-out: MIC90",0.06 µg/mL
same,MIC90,"[4]; pH 4, 24 h",1 µg/mL
same,MIC90,"[4]; pH 4, 48 h",4 µg/mL
same,MIC90,"[4]; pH 7, 24 h",1 µg/mL
same,MIC90,"[4]; pH 7, 48 h",2 µg/mL
same,MIC90,"[5]; pH 4, 24 h",1 µg/mL
same,MIC90,"[5]; pH 4, 48 h",2 µg/mL
same,MIC90,"[5]; pH 7, 24 h",1 µg/mL
same,MIC90,"[5]; pH 7, 48 h",2 µg/mL
same,MIC fold-shift,[6]; ATCC 2001,8
same,MIC fold-shift,[6]; ATCC 90030,128
same,MIC,"[6]; 48 h, ATCC 90030 P20-1, selecting drug ANID, Fks2 HS1 D666I, 48 h read",2 µg/mL
same,MIC,"[6]; 48 h, ATCC 90030 P20-1, selecting drug CAS, Fks2 HS1 F659I D666Y, 48 h read",32 µg/mL
same,MIC,"[6]; ATCC 2001 P20-2, selecting drug ANID, Fks1 HS1 D632Y",2 µg/mL
same,MIC,"[6]; ATCC 2001 P20-2, selecting drug CAS",2 µg/mL
same,MIC,"[6]; ATCC 2001 P20-2, selecting drug CMP1",1 µg/mL
same,MIC,"[6]; ATCC 90030 P20-2, selecting drug CMP1",1 µg/mL
same,MIC,"[6]; read-out: MIC P20, ATCC 2001, total population after 20 passages with the selecting drug, MIC of selecting drug",2 µg/mL
same,MIC,"[6]; read-out: MIC P20, ATCC 90030, total population after 20 passages with the selecting drug, MIC of selecting drug",32 µg/mL
same,Median mutation frequency,C. albicans NRRL Y-477 [7],1.14E−08
same,Plate concentration,C. albicans NRRL Y-477 [7]; [13],0.25 µg/mL
same,Freq. (replicate mutation frequency),C. albicans NRRL Y-477 [7]; replicate plates 1-3,1.25E−08 and 1.14E−08 and 7.81E−09
same,MIC fold-shift,"C. parapsilosis CP02 [8]; CP02, WT to P20",2
same,MIC,"C. parapsilosis CP02 [8]; CP02, CP02 P20-1, selecting drug ANID",0.5 µg/mL
same,MIC,"C. parapsilosis CP02 [8]; CP02, CP02 P20-1, selecting drug CAS",1 µg/mL
same,MIC,"C. parapsilosis CP02 [8]; CP02, CP02 P20-1, selecting drug CMP1",1 µg/mL
same,MIC,"C. parapsilosis CP02 [8]; CP02, read-out: MIC P20, CP02, total population after 20 passages with the selecting drug, MIC of selecting drug",1 µg/mL
same,MIC90,"[9]; pH 4, 24 h",1 µg/mL
same,MIC90,"[9]; pH 4, 48 h",2 µg/mL
same,MIC90,"[9]; pH 7, 24 h",1 µg/mL
same,MIC90,"[9]; pH 7, 48 h",2 µg/mL
same,MIC fold-shift,"C. krusei ATCC 6258 [10]; ATCC 6258, WT to P20",2
same,MIC,C. krusei ATCC 6258 [10]; ATCC6258,0.5 µg/mL
same,MIC,"C. krusei ATCC 6258 [10]; ATCC6258, read-out: MIC P20",1 µg/mL
same,Cumulative % of isolates inhibited at MIC 0.06 μg/mL,Candida krusei,(25.0) %
same,Cumulative % of isolates inhibited at MIC 0.12 μg/mL,Candida krusei,(87.5) %
same,Cumulative % of isolates inhibited at MIC 0.25 μg/mL,Candida krusei,(100.0) %
same,Number of isolates inhibited at MIC 0.06 μg/mL,Candida krusei,4
same,Number of isolates inhibited at MIC 0.12 μg/mL,Candida krusei,10
same,Number of isolates inhibited at MIC 0.25 μg/mL,Candida krusei,2
same,MIC50,"Candida krusei; Pichia kudriavzevii, read-out: MIC50",0.12 µg/mL
same,MIC90,"Candida krusei; Pichia kudriavzevii, read-out: MIC90",0.25 µg/mL
same,MIC,"[11]; 48 h, pH 4, fluconazole-resistant isolate 1, pH 4, 48 h",0.25 µg/mL
same,MIC,"[11]; 48 h, pH 4, fluconazole-resistant isolate 2, pH 4, 48 h",1 µg/mL
same,MIC,"[11]; 48 h, pH 4, fluconazole-resistant isolate 3, pH 4, 48 h",0.5 µg/mL
same,MIC,"[11]; 48 h, pH 4, fluconazole-resistant isolate 4, pH 4, 48 h",1 µg/mL
same,MIC,"[11]; 48 h, pH 4, fluconazole-resistant isolate 5, pH 4, 48 h",4 µg/mL
same,MIC,"[11]; 48 h, pH 4, fluconazole-resistant isolate 6, pH 4, 48 h",1 µg/mL
same,MIC,"[11]; 48 h, pH 4, fluconazole-resistant isolate 7, pH 4, 48 h",1 µg/mL
same,MIC,"[11]; 48 h, pH 4, fluconazole-resistant isolate 8, pH 4, 48 h",0.5 µg/mL
same,MIC,"[11]; 48 h, pH 4, fluconazole-resistant isolate 9, pH 4, 48 h",1 µg/mL
same,MIC,"[11]; 48 h, pH 4, fluconazole-resistant isolate 10, pH 4, 48 h",1 µg/mL
same,MIC,"[11]; 48 h, pH 7, fluconazole-resistant isolate 1, pH 7, 48 h",0.5 µg/mL
same,MIC,"[11]; 48 h, pH 7, fluconazole-resistant isolate 2, pH 7, 48 h",0.5 µg/mL
same,MIC,"[11]; 48 h, pH 7, fluconazole-resistant isolate 3, pH 7, 48 h",0.5 µg/mL
same,MIC,"[11]; 48 h, pH 7, fluconazole-resistant isolate 4, pH 7, 48 h",0.5 µg/mL
same,MIC,"[11]; 48 h, pH 7, fluconazole-resistant isolate 5, pH 7, 48 h",2 µg/mL
same,MIC,"[11]; 48 h, pH 7, fluconazole-resistant isolate 6, pH 7, 48 h",1 µg/mL
same,MIC,"[11]; 48 h, pH 7, fluconazole-resistant isolate 7, pH 7, 48 h",0.5 µg/mL
same,MIC,"[11]; 48 h, pH 7, fluconazole-resistant isolate 8, pH 7, 48 h",0.5 µg/mL
same,MIC,"[11]; 48 h, pH 7, fluconazole-resistant isolate 9, pH 7, 48 h",2 µg/mL
same,MIC,"[11]; 48 h, pH 7, fluconazole-resistant isolate 10, pH 7, 48 h",0.5 µg/mL
same,MIC90,"[11]; pH 4, 24 h",0.5 µg/mL
same,MIC90,"[11]; pH 4, 48 h",1 µg/mL
same,MIC90,"[11]; pH 7, 24 h",0.5 µg/mL
same,MIC90,"[11]; pH 7, 48 h",1 µg/mL
same,Cumulative % of isolates inhibited at MIC 0.25 μg/mL,Candida parapsilosis,(33.7) %
same,Cumulative % of isolates inhibited at MIC 0.5 μg/mL,Candida parapsilosis,(87.0) %
same,Cumulative % of isolates inhibited at MIC 1 μg/mL,Candida parapsilosis,(98.9) %
same,Cumulative % of isolates inhibited at MIC 2 μg/mL,Candida parapsilosis,(100.0) %
same,Number of isolates inhibited at MIC 0.25 μg/mL,Candida parapsilosis,31
same,Number of isolates inhibited at MIC 0.5 μg/mL,Candida parapsilosis,49
same,Number of isolates inhibited at MIC 1 μg/mL,Candida parapsilosis,11
same,Number of isolates inhibited at MIC 2 μg/mL,Candida parapsilosis,1
same,MIC50,"Candida parapsilosis; Lodderomyces parapsilosis, read-out: MIC50",0.5 µg/mL
same,MIC90,"Candida parapsilosis; Lodderomyces parapsilosis, read-out: MIC90",1 µg/mL
same,Median mutation frequency,C. parapsilosis CP02 [12],<1.04E−08
same,Plate concentration,C. parapsilosis CP02 [12]; [13],1 µg/mL
same,Freq. (replicate mutation frequency),C. parapsilosis CP02 [12]; replicate plates 1-3,<1.04E−08 (2×) and <9.62E−09
